Values quoted from earlier work, collected in US20120077872A1, “PRESERVATIVE-FREE PHARMACEUTICAL TETRAHYDROLIPSTATIN COMPOSITIONS” (EMS S.A., priority 2009, published 2012).

Conditions: stored at dry atmosphere

In the case of `CCCCCCCCCCC[C@@H](C[C@@H]1OC(=O)[C@H]1CCCCCC)OC(=O)[C@H](CC(C)C)NC=O` [THL, N-Formyl-L-leucine (1S)-1-[[(2S,3S)-3-hexyl-4-oxo-2-oxetanyl]methyl]dodecyl ester], the “temperature at which degradation starts” value is listed as “around 40 °C”.
